Measurements published in patent US20070179181A1, “Treatment of inflammatory disorders and pain using beta-aminoalcohols” (priority 2004, published 2007).

Tests used:
alpha1 adrenoceptor = assay: Alpha1 adrenoceptor binding affinity (3H-prazosin, rat brain homogenate); set-up: species or system Wistar rats; conditions: radioligand 3H-prazosin 0.25 nM
Procedure: (§1) Adrenoceptor Binding Affinity Brains from Wistar rats were homogenised and incubated with test article (over a concentration range) and the radioligand 3H-prazosin (0.25 nM) for 30 minutes at 25° C., in a 50 mM Tris-HCl, 0.1% ascorbic acid, 10 μM pargyline incubation buffer. After washing, binding was measured by scintillation counting. LPS Mouse Assay

[1] = system: rat adjuvant model of arthritis; assay: Rat adjuvant assay (model of arthritis); format: in vivo, Wistar rats
Procedure: Rat Adjuvant Assay Male Wistar rats (180 to 200 g) were inoculated by subplantar injection of freund's adjuvant (suspension of Mycobacterium butyricum in mineral oil) into the right paw at day 0. Sham inoculations were injected in the same way with 0.9% saline in matched Male Wistar rats. On day 2 animals were weighed. On days 3, 4, 7, 9 and 11 animals were weighed and both their right and left hind paws were measure by plethsymometry by submerging the paw up to the tibiotarsal joint. On day 11, rats with left hind paw volumes increased by 20% were selected for continuance in the study. On the same day continuance rats were administered test article orally (10 ml/kg in distilled water) and from then on once a day until the completion of the study. Left and right hind paw volumes were measured on days 11, 14, 15, 16, 18 and 21.

TNFα = assay: LPS mouse assay, serum TNFα; format: in vivo, Balb C ByJ mice; conditions: LPS-challenged mouse
Procedure: as §1, with “Brains” for “Adrenoceptor Binding Affinity Brains”
7 week old Balb C ByJ mice (24-28 g) were administered, either by i.p. (5 ml/kg) or oral (10 ml/kg) administration, with vehicle or test article. 30 minutes later these animals were challenged with an intraperitoneal injection of 1 mg/kg LPS. 2 hours after LPS challenge blood samples were collected under light isoflurane anaesthesia into normal tubes by retro-orbital puncture. Samples were allowed to clot at room temperature and then spun at 6000 g for 3 min at 4° C. Serum was stored at −20° C. until use. Serum TNFa and IL-10 levels were analysed in duplicate by ELISA technique.

| Structure (SMILES) | Alpha1 affinity (alpha1 adrenoceptor) | further results |
| --- | --- | --- |
| CC(C(O)c1ccc(O)cc1)N1CCC(Cc2ccccc2)CC1 (stereo not drawn) [erythro (+), Ifenprodil] | 63 nM | – |
| CC(CCc1ccccc1)NCC(O)c1ccc(O)c(C(N)=O)c1 (stereo not shown) [labetalol] | – | efficacy in rat adjuvant model of arthritis ([1]; 30 mg/kg): Pronounced (and similar) efficacy; efficacy in rat adjuvant model of arthritis ([1]; 100 mg/kg): Pronounced (and similar) efficacy |
| CC(NCCc1ccc(O)cc1)C(O)c1ccc(O)cc1 (stereo not shown) [ritodrine] | – | LPS-induced systemic TNFα release in mouse blood (TNFα): cytokine modulatory activity |

Second part, led by results:

| Alpha1 affinity (alpha1 adrenoceptor) | Structure (SMILES) | further results |
| --- | --- | --- |
| 482 nM | CC(C(O)c1ccc(O)cc1)N1CCC(Cc2ccccc2)CC1 (stereo not drawn) [erythro (−), Ifenprodil] | – |
| 2160 nM | CC(C(O)c1ccc(O)cc1)N1CCC(Cc2ccccc2)CC1 (stereo not drawn) [threo (+), Ifenprodil] | – |
| 439 nM | CC(C(O)c1ccc(O)cc1)N1CCC(Cc2ccccc2)CC1 (stereo not drawn) [threo (−), Ifenprodil] | – |
